Test results reported in ChEMBL document CHEMBL1201862, “PubChem BioAssay data set” (2004).
Calls of active or inactive are those of the source.

What was measured:
BJ [1] = experiment: cytotoxicity toward BJ-TERT-LT-ST fibroblasts, dose response, cell-based, RAS-independent, luminescence (AID 1935); type: functional; settings: Homo sapiens;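 note: BJ fibroblasts immortalized with TERT plus LT and ST oncogenes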
[2] = cytotoxicity toward DRD oncogenic fibroblasts, dose response, cell-based, non-viral oncogenic, luminescence (AID 1934); type: functional; settings: Homo sapiens
HEK293 = experiment: inhibitors of LMP1-driven NF-kB reporter, dose response, cell-based, HEK293, luciferase, cherry-pick (AID 588343); type: functional; settings: Homo sapiens
BJ [3] = experiment: cells; type: functional, cell-based; settings: Homo sapiens
[4] = target: Cyclin-dependent kinase 5/CDK5 activator 1 (Homo sapiens, UniProt Q00535); experiment: CDK5/p35 kinase inhibitors, dose response, biochemical, cherry-picked samples, set 2 (AID 504545)
[5] = inhibition of ADP-Glo detection reagents, dose response, artefact control for CDK5 inhibitor project, biochemical, luminescence, cherry-picked samples, set 2 (AID 504546); type: functional
BJ [6] = experiment: cytotoxicity toward BJ-TERT fibroblasts, dose response, cell-based, RAS-independent, luminescence (AID 1933); type: functional; settings: Homo sapiens
[7] = Luminescence Cell-Based Dose Confirmation HTS to Identify Inhibitors of Platelet Dense Granule Release. [Related pubchem assays: 1663 (Primary HTS), 1678 (Summary of Project)]; type: functional
BJ [8] = experiment: cytotoxicity toward Ras-transformed BJeLR fibroblasts, dose response, cell-based, alamar blue fluorescence, cherrypicked samples (AID 2631); type: functional; settings: Homo sapiens;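 note: confirmatory dose-response assay in RAS-dependent BJ fibroblasts engineered with TERT, LT and ST, with cytotoxicity read by fluorescence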
[9] = target: Luciferin 4-monooxygenase (Photinus pyralis, UniProt P08659); experiment: firefly luciferase enzyme inhibitors, dose response, biochemical, luminescence (AID 1891)
[10] = inhibitors of firefly luciferase expression or activity, dose response, H4 neuroglioma cells, luminescence (AID 1990); type: functional, cell-based
[11] = C. albicans growth with fluconazole, confirmation, fluorescence, retest (AID 2467); type: functional, cell-based
INS1 = experiment: beta cell apoptosis inhibitors, cytokine rescue, dose response, luminescence, retest (AID 449756); type: functional, cell-based; settings: Rattus norvegicus;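 note: cell death triggered by IL-1 beta plus TNF-alpha plus IFN-gamma mixture; protective hits raise ATP signal compared with cytokine alone wells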
cells [12] = type: functional, cell-based
[13] = inhibitors of SNCA 5'UTR-driven reporter translation, confirmation, H4 neuroglioma cells, luminescence (AID 1988); type: functional, cell-based
[14] = Luminescence Cell-Based Dose Response HTS to Identify Inhibitors of 5'UTR Stem-Loop Driven Prion Protein mRNA Translation in H4 Neuroglioblastoma Cells. [Related pubchem assays: 1827 (Project Summary), 1813 (Primary HTS)]; type: functional
[15] = Shn3 3'UTR reporter inhibitors, dose response, cell-based, Clone20 osteoblasts, firefly luciferase, cherry-picked (AID 624132); type: functional;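 note: firefly luciferase luminescence from reporter carrying the Shn3 3'UTR in osteoblasts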
Vero [16] = experiment: cells; type: functional; settings: Chlorocebus sabaeus
[17] = NIH-3T3 fibroblast cytotoxicity, dose response, cytotoxicity control, cell-based, fluorescence, Alamar Blue, secondary assay (AID 2327); type: functional;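 note: NIH-3T3 mouse fibroblasts cultured with fluconazole at 8 µg/mL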
[18] = control 3'UTR Renilla luciferase suppression, dose response, counter-screen for Shn3 inhibitor project, cell-based, Clone20-Shn3RL, cherry-picked (AID 624133); type: functional
[19] = A Cell Based Assay for the Identification of Probe candidate Compounds with Anti- Venezuelan Equine Encephalitis virus. [Related pubchem assays: 2409, 2419, 1621, 2238, 2405, 2024, 2065, 2402, 2414, 1635, 1650, 2244 ]; type: functional
Streptococcus = experiment: Group A Streptococcus viability loss, dose response, counter-screen for streptokinase expression inhibitor project, luminescence, BacTiterGlo (AID 1915); type: functional, organism-based;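 note: potency for reduction of bacterial viability or growth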
[20] = cytotoxicity toward NIH3T3 fibroblasts, dose response, counter-screen, cell-based, ATP luminescence, mouse fibroblasts (AID 2010); type: functional;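 note: cells exposed to compound for about 90 hours before reading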
[21] = inhibitors of intracellular T. cruzi replication, confirmation, NIH3T3 host cells, beta-gal luminescence (AID 2044); type: functional, cell-based;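 note: intracellular parasites grown in NIH/3T3 mouse fibroblasts as host cells; luminescent beta-galactosidase reporter signal from transgenic T. cruzi replicating inside host cells; inhibitors lower the luminescence signal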
[22] = system: Streptococcus sp. 'group A'; experiment: growth inhibition of control SK(-) GAS strain, dose response, counter-screen for streptokinase expression inhibitor project, luminescence, kanamycin, BacTiterGlo, confirmation (AID 1900); type: functional, organism-based
Vero [23] = experiment: Vero E6 cell cytotoxicity, SAR follow-up, cytotoxicity control for West Nile virus antiviral project, synthesized analogs (AID 2244); type: functional; settings: Chlorocebus sabaeus
Vero [24] = experiment: cytotoxicity of synthesized analogs in Vero 76, SAR follow-up, cytotoxicity control for West Nile virus antiviral project, Vero 76 cells (AID 2414); type: functional; settings: Chlorocebus sabaeus
cells [25] = type: functional, cell-based; remark: listed apart in the source
[26] = HepG2 cell cytotoxicity, dose response, cytotoxicity control for Shn3 inhibitor project, CellTiter-Glo, cherry-picked (AID 624134); type: functional, cell-based
Vero [27] = experiment: cytotoxicity of synthesized analogs in Vero cells, SAR follow-up, cytotoxicity control for West Nile virus antiviral project, cell-based, set II (AID 2402); type: functional; settings: Chlorocebus sabaeus
HeLa = experiment: HeLa cell cytotoxicity, dose response, cytotoxicity control, 24 h, cherry-picked samples (AID 504726); type: functional, cell-based; settings: Homo sapiens;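 note: potency for cytotoxicity as loss of luminescence signal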
Keap1/Nrf2 = Keap1/Nrf2 (Homo sapiens, UniProt Q14145); experiment: Keap1-Nrf2 protein-protein interaction inhibitors, dose response, biochemical, fluorescence polarization, cherry-picked samples (AID 588683)
ORF 73 = ORF 73 (Human herpesvirus 8, UniProt O40947); experiment: inhibitors of C-LANA binding to LBS DNA, dose response, biochemical, fluorescence polarization, cherry-picked samples (AID 504725); parameters: species or system Human gammaherpesvirus 8;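 note: fluorescence polarization of a labeled DNA duplex reporting LANA DNA binding; potency is for inhibitors that block LANA binding to the DNA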
[28] = target: DNA dC->dU-editing enzyme APOBEC-3G (Homo sapiens, UniProt Q9HC16); experiment: Dose Response confirmation of small molecule APOBEC3G DNA Deaminase Inhibitors via a fluorescence-based single-stranded DNA deaminase assay. [Related pubchem assays (depositor defined):AID493012, AID493028]; type: functional
[29] = target: DNA dC->dU-editing enzyme APOBEC-3A (Homo sapiens, UniProt P31941); experiment: APOBEC3A DNA deaminase inhibitors, dose response, biochemical (AID 504722); type: functional
[30] = cytotoxicity in HPDE-C7 cells, cell-based, fluorescence, HTS (AID 430); type: functional; settings: Homo sapiens
[31] = cytotoxicity in KRAS-transformed pancreatic duct cells, primary screen, cell-based, fluorescence, HTS (AID 431); type: functional; settings: Homo sapiens;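 note: cell line used: HPDE-C7K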
[32] = target: Melanin-concentrating hormone receptor 1 (Homo sapiens, UniProt Q99705); experiment: Fluorescence-based counterscreen for antagonists of the G-protein coupled receptor 7 (GPR7): cell-based high throughput dose response assay to identify antagonists of the melanin-concentrating hormone receptor 1 (MCHR1).; type: functional
[33] = target: Neuropeptides B/W receptor type 1 (Homo sapiens, UniProt P48145); experiment: Fluorescence-based dose response cell-based high throughput screening assay to identify antagonists of the G-protein coupled receptor 7 (GPR7). [Related pubchem assays: 1952 (Screening assay (GPR7 antagonists).), 1880 (Summary AID.)]; type: functional
[34] = Vero E6 cell cytotoxicity, dose response, cytotoxicity control for non-replicating M. tuberculosis project, secondary assay (AID 492998); type: functional, VeroE6; settings: Vero C1008
[35] = THP-1 cell cytotoxicity, dose response, cytotoxicity control for non-replicating M. tuberculosis project (AID 489025); type: functional
[36] = HepG2 cell cytotoxicity, dose response, cytotoxicity control for non-replicating M. tuberculosis project (AID 489018); type: functional; settings: Mycobacterium tuberculosis
cells [37] = type: functional

ORF 73, sequence (O40947 whole entry): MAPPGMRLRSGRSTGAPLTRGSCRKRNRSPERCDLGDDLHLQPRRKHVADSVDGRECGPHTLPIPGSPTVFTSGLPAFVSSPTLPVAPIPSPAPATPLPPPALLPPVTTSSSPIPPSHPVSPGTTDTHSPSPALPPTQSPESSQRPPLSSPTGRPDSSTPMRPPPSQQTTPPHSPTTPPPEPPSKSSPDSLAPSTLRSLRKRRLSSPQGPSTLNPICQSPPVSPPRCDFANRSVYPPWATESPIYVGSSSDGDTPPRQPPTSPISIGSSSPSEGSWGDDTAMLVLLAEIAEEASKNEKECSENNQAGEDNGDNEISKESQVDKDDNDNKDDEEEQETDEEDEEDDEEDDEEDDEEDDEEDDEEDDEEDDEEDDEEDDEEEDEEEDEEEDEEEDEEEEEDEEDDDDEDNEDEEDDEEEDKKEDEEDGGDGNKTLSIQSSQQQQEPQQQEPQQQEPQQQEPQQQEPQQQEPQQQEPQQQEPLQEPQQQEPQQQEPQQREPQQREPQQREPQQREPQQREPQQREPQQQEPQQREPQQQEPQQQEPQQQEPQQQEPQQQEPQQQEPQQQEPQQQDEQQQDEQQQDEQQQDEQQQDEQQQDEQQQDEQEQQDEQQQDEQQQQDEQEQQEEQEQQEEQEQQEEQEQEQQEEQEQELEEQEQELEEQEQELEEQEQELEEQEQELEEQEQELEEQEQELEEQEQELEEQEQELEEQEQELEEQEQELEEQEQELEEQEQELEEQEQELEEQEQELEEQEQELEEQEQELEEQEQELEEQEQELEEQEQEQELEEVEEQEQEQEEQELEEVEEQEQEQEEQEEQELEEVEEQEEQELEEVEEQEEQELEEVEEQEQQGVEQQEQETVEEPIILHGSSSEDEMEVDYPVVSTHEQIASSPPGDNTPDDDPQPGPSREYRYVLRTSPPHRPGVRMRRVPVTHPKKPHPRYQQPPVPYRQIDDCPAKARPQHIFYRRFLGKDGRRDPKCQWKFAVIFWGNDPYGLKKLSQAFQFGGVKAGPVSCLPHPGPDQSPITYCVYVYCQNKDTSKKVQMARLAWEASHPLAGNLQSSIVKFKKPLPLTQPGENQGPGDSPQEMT
DNA dC->dU-editing enzyme APOBEC-3G, sequence (Q9HC16 whole entry): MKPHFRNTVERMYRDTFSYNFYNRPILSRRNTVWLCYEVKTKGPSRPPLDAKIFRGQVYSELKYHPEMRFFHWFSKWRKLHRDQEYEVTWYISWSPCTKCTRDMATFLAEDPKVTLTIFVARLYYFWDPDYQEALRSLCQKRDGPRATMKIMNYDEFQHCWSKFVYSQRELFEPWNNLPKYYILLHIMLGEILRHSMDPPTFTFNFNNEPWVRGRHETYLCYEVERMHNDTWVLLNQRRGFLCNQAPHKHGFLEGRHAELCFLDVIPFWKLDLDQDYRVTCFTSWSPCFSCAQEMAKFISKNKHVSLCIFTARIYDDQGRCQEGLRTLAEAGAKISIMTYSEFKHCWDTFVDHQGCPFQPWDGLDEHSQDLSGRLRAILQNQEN
Cyclin-dependent kinase 5/CDK5 activator 1, sequence (Q00535 whole entry): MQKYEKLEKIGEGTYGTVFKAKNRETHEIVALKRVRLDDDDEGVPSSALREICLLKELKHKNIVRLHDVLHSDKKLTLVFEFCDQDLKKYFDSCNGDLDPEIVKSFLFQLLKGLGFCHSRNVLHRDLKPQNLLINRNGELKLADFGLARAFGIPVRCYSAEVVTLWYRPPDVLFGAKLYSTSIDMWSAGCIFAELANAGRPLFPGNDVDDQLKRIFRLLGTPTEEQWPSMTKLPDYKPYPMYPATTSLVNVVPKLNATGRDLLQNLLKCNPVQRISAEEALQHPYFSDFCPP
Cyclin-dependent kinase 5/CDK5 activator 1, sequence (Q15078 whole entry, further chain): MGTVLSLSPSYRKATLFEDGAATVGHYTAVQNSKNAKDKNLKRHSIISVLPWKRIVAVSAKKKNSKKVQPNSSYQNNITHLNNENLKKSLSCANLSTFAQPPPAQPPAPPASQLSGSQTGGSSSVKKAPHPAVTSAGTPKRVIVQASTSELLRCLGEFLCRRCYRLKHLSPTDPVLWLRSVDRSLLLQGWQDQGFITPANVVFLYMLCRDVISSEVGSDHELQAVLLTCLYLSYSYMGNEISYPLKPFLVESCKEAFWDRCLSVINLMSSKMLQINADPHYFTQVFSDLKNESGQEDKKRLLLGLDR
Keap1/Nrf2, sequence (Q16236 whole entry): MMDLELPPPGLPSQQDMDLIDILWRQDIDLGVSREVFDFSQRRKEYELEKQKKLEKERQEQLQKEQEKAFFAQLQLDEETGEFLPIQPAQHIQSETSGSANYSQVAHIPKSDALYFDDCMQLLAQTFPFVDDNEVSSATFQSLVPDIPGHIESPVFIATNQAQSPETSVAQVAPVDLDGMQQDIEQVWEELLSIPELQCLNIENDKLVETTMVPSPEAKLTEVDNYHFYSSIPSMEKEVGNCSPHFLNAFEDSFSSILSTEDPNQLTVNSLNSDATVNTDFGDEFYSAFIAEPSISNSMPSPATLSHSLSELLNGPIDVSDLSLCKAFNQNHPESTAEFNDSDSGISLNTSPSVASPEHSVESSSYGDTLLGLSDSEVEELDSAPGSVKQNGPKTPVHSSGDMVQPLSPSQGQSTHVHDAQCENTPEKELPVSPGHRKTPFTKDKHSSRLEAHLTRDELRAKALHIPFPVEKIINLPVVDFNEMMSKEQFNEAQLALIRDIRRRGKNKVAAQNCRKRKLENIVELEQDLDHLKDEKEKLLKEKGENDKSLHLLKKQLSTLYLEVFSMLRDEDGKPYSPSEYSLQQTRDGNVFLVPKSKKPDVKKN
Keap1/Nrf2, sequence (Q14145 whole entry): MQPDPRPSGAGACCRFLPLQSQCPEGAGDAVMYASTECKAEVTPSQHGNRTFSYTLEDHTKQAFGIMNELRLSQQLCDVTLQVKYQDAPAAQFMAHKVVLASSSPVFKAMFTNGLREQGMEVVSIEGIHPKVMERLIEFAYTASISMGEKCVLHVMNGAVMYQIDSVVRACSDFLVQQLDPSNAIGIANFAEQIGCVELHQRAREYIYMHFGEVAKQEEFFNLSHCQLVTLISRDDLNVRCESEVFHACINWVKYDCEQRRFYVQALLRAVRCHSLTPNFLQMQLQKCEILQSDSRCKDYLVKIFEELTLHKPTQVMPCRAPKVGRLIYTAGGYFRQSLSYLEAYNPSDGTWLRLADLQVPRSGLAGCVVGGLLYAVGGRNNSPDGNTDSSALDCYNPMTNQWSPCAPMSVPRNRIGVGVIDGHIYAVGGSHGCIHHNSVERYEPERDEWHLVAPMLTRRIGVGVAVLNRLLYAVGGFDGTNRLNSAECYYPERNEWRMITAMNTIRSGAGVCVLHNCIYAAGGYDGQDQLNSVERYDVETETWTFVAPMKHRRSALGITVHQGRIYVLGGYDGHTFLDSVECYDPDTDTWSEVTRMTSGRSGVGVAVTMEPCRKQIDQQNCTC
Neuropeptides B/W receptor type 1, sequence (P48145 whole entry): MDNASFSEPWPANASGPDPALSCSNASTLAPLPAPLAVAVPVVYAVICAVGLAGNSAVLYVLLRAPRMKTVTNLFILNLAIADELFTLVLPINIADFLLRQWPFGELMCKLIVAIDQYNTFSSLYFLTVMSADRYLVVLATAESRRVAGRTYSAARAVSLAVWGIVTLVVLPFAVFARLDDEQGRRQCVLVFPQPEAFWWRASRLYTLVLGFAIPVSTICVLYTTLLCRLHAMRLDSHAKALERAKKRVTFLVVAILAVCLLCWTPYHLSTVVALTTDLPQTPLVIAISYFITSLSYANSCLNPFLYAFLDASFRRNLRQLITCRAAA
Luciferin 4-monooxygenase, sequence (P08659 whole entry): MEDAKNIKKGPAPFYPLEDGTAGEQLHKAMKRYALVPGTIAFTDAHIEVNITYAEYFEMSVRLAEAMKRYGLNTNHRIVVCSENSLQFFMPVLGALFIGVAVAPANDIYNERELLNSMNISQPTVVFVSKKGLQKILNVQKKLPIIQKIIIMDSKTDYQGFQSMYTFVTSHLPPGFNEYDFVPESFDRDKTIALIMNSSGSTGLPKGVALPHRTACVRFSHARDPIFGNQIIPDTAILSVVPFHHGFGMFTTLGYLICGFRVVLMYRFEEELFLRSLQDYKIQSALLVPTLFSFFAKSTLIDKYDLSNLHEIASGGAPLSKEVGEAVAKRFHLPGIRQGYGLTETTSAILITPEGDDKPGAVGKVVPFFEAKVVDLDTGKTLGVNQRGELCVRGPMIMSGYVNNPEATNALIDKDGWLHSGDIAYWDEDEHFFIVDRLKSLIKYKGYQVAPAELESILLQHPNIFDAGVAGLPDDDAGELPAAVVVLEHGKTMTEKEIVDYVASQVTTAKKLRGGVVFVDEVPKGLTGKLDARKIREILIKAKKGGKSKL
Melanin-concentrating hormone receptor 1, sequence (Q99705 whole entry): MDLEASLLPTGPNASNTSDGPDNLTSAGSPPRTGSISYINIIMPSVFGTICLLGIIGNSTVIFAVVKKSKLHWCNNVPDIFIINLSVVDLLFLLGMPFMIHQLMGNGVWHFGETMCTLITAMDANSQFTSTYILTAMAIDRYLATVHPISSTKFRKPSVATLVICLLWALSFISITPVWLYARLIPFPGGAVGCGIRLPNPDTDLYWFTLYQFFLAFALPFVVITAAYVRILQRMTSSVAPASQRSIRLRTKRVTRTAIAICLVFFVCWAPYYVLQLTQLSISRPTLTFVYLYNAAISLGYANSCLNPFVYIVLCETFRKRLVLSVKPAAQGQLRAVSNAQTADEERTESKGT
DNA dC->dU-editing enzyme APOBEC-3A, sequence (P31941 whole entry): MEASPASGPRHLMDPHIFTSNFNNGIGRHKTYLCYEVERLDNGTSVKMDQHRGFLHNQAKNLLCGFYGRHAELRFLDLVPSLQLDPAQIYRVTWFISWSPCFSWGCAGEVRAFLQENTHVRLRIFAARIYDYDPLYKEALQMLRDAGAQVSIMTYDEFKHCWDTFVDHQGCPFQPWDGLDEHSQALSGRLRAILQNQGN

CCN(CC)C(=O)c1ccc(NC(=O)Nc2ccccc2F)cc1
EC50 (BJ [1]): 9.1 µM (inconclusive) | EC50 [2]: 3.5 µM (active) | AC50 (HEK293): 2.08 µM (active) | EC50 (BJ [3]): 4.99 µM (active) | AC50 [4]: 21.1 µM (active) | AC50 [5]: 51.6 µM (active) | EC50 (BJ [6]): 4.45 µM (active) | EC50 [7]: < 0.701 µM (active) | EC50 (BJ [8]): > 133 µM (inactive) | EC50 [9]: 0.225 µM (active)

Oc1ccccc1C(Nc1nccs1)c1ccc2cccnc2c1O (centres undefined)
EC50 [10]: 11.9 µM (active) | EC50 (BJ [1]): 9.11 µM (active) | EC50 [11]: 1.4 µM (active) | EC50 [2]: 10.7 µM (active) | EC50 (BJ [3]): 13.9 µM (active) | AC50 (INS1): 1.95 µM (active) | EC50 (cells [12]): 12.5 µM (active) | EC50 [13]: 9.59 µM (active) | EC50 [14]: 8.46 µM (active) | AC50 [15]: 1.13 µM (active) | CC50 (Vero [16]): 10.3 µM (active) | EC50 [17]: 6.03 µM (active) | EC50 (BJ [6]): 8.13 µM (inconclusive) | AC50 [18]: 2.47 µM (active) | IC50 [19]: 20.9 µM (active) | EC50 (Streptococcus): 6.55 µM (active) | EC50 [20]: 9.11 µM (active) | EC50 [21]: 0.832 µM (active) | EC50 [22]: 2.3 µM (active) | CC50 (Vero [23]): 8 µM (active) | CC50 (Vero [24]): 21.6 µM (active) | EC50 (cells [25]): > 350 µM (not active) | AC50 [26]: 6.74 µM (active) | CC50 (Vero [27]): 7.2 µM (active)

Cc1cccc(N2C(=O)c3cccc4c(N(C)CCO)ccc(c34)C2=O)c1
AC50 (HeLa): 324 µM (active) | AC50 (Keap1/Nrf2): 22.6 µM (active) | AC50 (ORF 73): 204 µM (active)

Cc1cccc(C)c1OCc1nnc(S)n1N
IC50 [28]: 5.83 µM (active) | IC50 [29]: > 100 µM (inactive)

CCc1ccccc1NC(=O)CN1C(=O)C2CCCN2c2ncc(Cl)cc21 (centres undefined)
EC50 [30]: > 20 µM (not active) | EC50 [31]: > 20 µM (not active) | IC50 [32]: > 43.8 µM (not active) | IC50 [33]: > 43.8 µM (not active)

CC(=O)Nc1nc2ccccc2n1Cc1ccc(C)cc1
CC50 [34]: > 20 µM (active) | CC50 [35]: > 40 µM (active) | EC50 [20]: 7.78 µM (active) | EC50 [21]: 3.92 µM (active) | CC50 [36]: > 20 µM (active) | IC50 (cells [37]): 2.73 µM (active)
